The record followed here is PubChem BioAssay AID463204 (Broad Institute, 2010).

Activity calls are given as the source filed them.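 Rule for the calls: active = AC50 no more than ten times the top concentration tested, that is within one log above it; inconclusive = flat curve fit with activity between 30% and 70%, or invalid poor fit; inactive = AC50 beyond ten times the top tested dose.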

The subject of the test is S. cerevisiae Mot1-301 ts growth rescue, BacTiter-Glo ATP luminescence. In words: restored Mot1-301 yeast growth at 38.5C – whole organism, S. cerevisiae, Mot1-301 ts mutant, luminescence, dose retest, SUMOylation pathway inhibitor project, confirmation (AID 463204).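 Note: growth at restrictive 38.5 degrees C of Mot1-301 OY566 strain; actives raise luminescence by restoring growth of the ts mutant at high temperature.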
As for `O=C(CCSc1nnc(-c2ccncc2)o1)Nc1ccc(Cl)cc1`, the AC50 was > 42 µM (inactive).

`CN(C=O)CP(=O)(O)CN(C)C=O`: the AC50 is > 42 µM (inactive).

Take `Cc1ccc(C)c(-n2nnnc2SCC(=O)Nc2c(C)n(C)n(-c3ccccc3)c2=O)c1`: the AC50 is > 42 µM (inactive).

`Cc1nc2ccccc2c2ncccc12`: the AC50 is > 42 µM (inactive).

Turning to `O=C(CSc1nc(-c2ccccc2)cc(=O)[nH]1)Nc1ccc(Br)cc1`, the AC50 is > 42 µM (inactive).

As to `CN(C)CCNC(=O)c1c(O)c2c([nH]c1=O)CCCC2`, the AC50 is > 42 µM (inactive).

Turning to `CC1=Nc2ccccc2/C1=C\c1nc(-c2ccccc2)oc1O`, the AC50 is > 42 µM (inactive).

With `COc1ccc(C)cc1NC(=S)N1CCN(c2ccccn2)CC1`, the AC50 was > 42 µM (inactive).

On to `N#C/C(=C\c1ccc(O)c(O)c1)C(=O)Nc1ccccc1`, for which the AC50 is > 42 µM (inactive).

`N/C(Cn1cncn1)=N\NC(=O)c1ccc(Cl)cc1Cl`: the AC50 was > 42 µM (inactive).

Regarding `Cc1ccc(C(=O)O)cc1[N+](=O)[O-]`, the AC50 was > 42 µM (inactive).

`Cc1sc2nc(SCC(=O)NCCOCCO)n(C)c(=O)c2c1C`: the AC50 was > 42 µM (inactive).

For the compound `COc1ccc2c(CC(=O)Nc3ccc(OC)c(NS(=O)(=O)c4ccc(F)cc4)c3)coc2c1`, the AC50 is > 42 µM (inactive).

With `S=c1[nH]nc(-c2ccco2)n1-c1ccc(Br)cc1`, the AC50 is > 42 µM (inactive).

For the compound `CC(NC(=O)C1CCCCC1)C(=O)NC1=NCCS1` (centres undefined), the AC50 was > 42 µM (inactive).

As for `Cc1sc2ncnc(N3CCC(C(=O)NNC(=O)COc4ccccc4F)CC3)c2c1C`, the AC50 was > 42 µM (inactive).

With `N#Cc1ccc(C23CC4(C2)[C@H](CN(Cc2ccc(C(F)(F)F)cc2)[C@@H]4c2ccccc2)C3c2ccc(C(F)(F)F)cc2)cc1` (some centres undefined), the AC50 is > 42 µM (inactive).

With `CC1(C)CC(=O)C=C(OC(=O)c2ccc(Cl)cc2)C1`, the AC50 was > 42 µM (inactive).

On to `CC(=O)N1c2ccc([N+](=O)[O-])cc2NC(=O)CC1C` (centres undefined), for which the AC50 is > 42 µM (inactive).

On to `COc1ccccc1C(=O)N(NC(=O)Oc1ccccc1)C(C)(C)C`, for which the AC50 was > 42 µM (inactive).

As to `O=C(c1cc(-c2ccc(Cl)c(Cl)c2)on1)N1CCN(c2ccccc2)CC1`, the AC50 was > 42 µM (inactive).

`CC(c1ccccn1)N(CCN(C)C)C(=S)Nc1cccc(F)c1` (centres undefined): the AC50 was > 42 µM (inactive).

Regarding `CNC(=O)Nc1cc(NC(=O)NC)cc(C(F)(F)F)c1`, the AC50 was > 42 µM (inactive).

For the compound `COC(=O)C1(Cc2cc(-c3ccccc3)no2)CCN(C(=O)OC(C)(C)C)CC1`, the AC50 is > 42 µM (inactive).

In the case of `Cc1cccc(N2CCN(C(=O)CN3C(=O)NC(C)(C)C3=O)CC2)c1C`, the AC50 was > 42 µM (inactive).

In the case of `CC1Cc2ccccc2N1C(=O)CNc1cccc(S(=O)(=O)N2CCCC2)c1` (centres undefined), the AC50 is > 42 µM (inactive).

Consider `c1coc(C2OCC3(CO2)COC(c2ccco2)OC3)c1` (centres undefined), for which the AC50 was > 42 µM (inactive).

For the compound `CCOc1cc(/C=N/NC(=O)C(=O)N/N=C/c2ccc(O)c(OCC)c2)ccc1O`, the AC50 was > 42 µM (inactive).

Consider `CC1CCN(CCCCOc2cccc(Br)c2)CC1`, for which the AC50 was > 42 µM (inactive).

For `COc1ccc(-c2noc(CSc3nc(-c4ccccc4)cc(=O)[nH]3)n2)cc1OC`, the AC50 was > 42 µM (inactive).

In the case of `N#CCCN(Cc1cccnc1)C(=O)Nc1cccc(Cl)c1`, the AC50 was > 42 µM (inactive).

With `COc1ccc(CNC(=O)c2cc(=O)c3cc(C)cc(C)c3o2)cc1`, the AC50 was > 42 µM (inactive).

As to `CC1Cc2ccccc2N1C(=O)Cn1c(=O)cc(O)c2ccccc21` (centres undefined), the AC50 was > 42 µM (inactive).

Regarding `CCCC(O)(c1ccc(Br)cc1)C(CN1CCOCC1)c1ccc(Cl)cc1` (centres undefined), the AC50 was 5.13 µM.

`O=C(NCC1CCN(Cc2ccccc2Cl)CC1)Nc1ccccc1F`: the AC50 was > 42 µM (inactive).

Regarding `CC1(C)CC(=O)C2=C(C1)Oc1ncn(CCO)c(=N)c1C2c1ccccc1` (centres undefined), the AC50 is > 42 µM (inactive).

On to `COc1c2ccoc2nc2c(OC)c(OC[C@@H](O)C(C)(C)O)ccc12`, for which the AC50 is > 42 µM (inactive).

As to `CN(CC(=O)N1CCc2[nH]c3ccc(F)cc3c2C1)CC1OCCO1`, the AC50 was > 42 µM (inactive).

For the compound `COc1ccccc1NC(=O)N1CCN(C(=O)Nc2ccccc2OC)CC1`, the AC50 is > 42 µM (inactive).

For `COc1ccc(/C=N/NC(=O)c2c(C)nc3ccccn23)cc1[N+](=O)[O-]`, the AC50 was > 42 µM (inactive).

As to `Cc1nc2sc(C(c3ccccc3)N3CCC(O)CC3)c(O)n2n1` (centres undefined), the AC50 is > 42 µM (inactive).

On to `C[N+](C)(C)CC(=O)Nc1ccc(Cl)cc1C(=O)c1ccccc1`, for which the AC50 was > 42 µM (inactive).

As for `N#Cc1c2ccc([N+](=O)[O-])cc2[n+]([O-])n1-c1ccccc1`, the AC50 is 2.9 µM.

As to `CC(=O)c1cccc(N2C(=NC(=O)C3CCCCC3)SC3CS(=O)(=O)CC32)c1` (centres undefined), the AC50 is > 42 µM (inactive).

`COC(=O)c1ccc(SCC(=O)N2CCC(C)CC2)c([N+](=O)[O-])c1`: the AC50 is > 42 µM (inactive).

On to `c1ccc2[nH]c(CSc3nccs3)nc2c1`, for which the AC50 is > 42 µM (inactive).

`Cc1nnc(SCC(=O)NCc2ccccc2Cl)[nH]c1=O`: the AC50 was > 42 µM (inactive).

`COc1ccc(-c2nnc(SCC(=O)N3CCCCC3)o2)cc1`: the AC50 was > 42 µM (inactive).

Consider `Cc1ccccc1C(=O)NNC(=S)Nc1cccc(C(F)(F)F)c1`, for which the AC50 is > 42 µM (inactive).

For the compound `COc1ccc2oc(=O)c(C(=O)NCc3ccco3)cc2c1`, the AC50 is > 42 µM (inactive).

In the case of `O=C(CC(c1ccccc1)c1ccccc1)NCCOCc1ccccc1`, the AC50 is > 42 µM (inactive).

Turning to `Nc1ccc(S(=O)(=O)NNC(=O)C(=O)NNc2ccccc2)cc1`, the AC50 is > 42 µM (inactive).

For `O=C(N/N=C/c1cccc([N+](=O)[O-])c1)C1COc2ccccc2O1` (centres undefined), the AC50 is > 42 µM (inactive).

On to `COc1ccc(CN(CC(=O)NCC2CCCO2)C(=O)CCC(=O)Nc2cc(C)on2)cc1` (centres undefined), for which the AC50 was > 42 µM (inactive).

`N#Cc1ccc(Oc2ccc(S(=O)(=O)N3CCCCC3)cn2)cc1`: the AC50 was > 42 µM (inactive).

On to `CC(=O)Nc1ccc(S(=O)(=O)Nc2cccc(-c3ccc4nncn4n3)c2)cc1`, for which the AC50 is > 42 µM (inactive).

Turning to `CCS(=O)(=O)N1CCC(C(=O)N2CCc3ccccc3C2)CC1`, the AC50 was > 42 µM (inactive).

For `Nn1c(SCc2cc([N+](=O)[O-])cc3c2OCOC3)nnc1-c1ccccn1`, the AC50 is > 42 µM (inactive).

Consider `O=C(CCCCCn1c(=O)[nH]c2ccsc2c1=O)NCc1ccc(F)cc1`, for which the AC50 was > 42 µM (inactive).

With `CSCCc1nc(SCC(=O)Nc2nnc(C)s2)[nH]c1C`, the AC50 is > 42 µM (inactive).

For the compound `CCC(CC)NC(=O)c1oc2ccccc2c1COc1ccccc1`, the AC50 was > 42 µM (inactive).

Take `Cc1cc(C)cc(OCC(=O)NC2CCCc3ccccc32)c1` (centres undefined): the AC50 is > 42 µM (inactive).

For `COc1ccc(NC(=O)Cn2c(=O)cnc3ccccc32)cc1S(=O)(=O)N1CCCCC1`, the AC50 is > 42 µM (inactive).

Regarding `CC(C)CNc1cc(=O)n(C)c(=O)n1C`, the AC50 was > 42 µM (inactive).
